Measured values reported in patent US7528140B2, “Substituted pyrrolo[3,2-d]pyrimidines as glycogen synthase kinase (GSK) inhibitors” (Teijin Limited, priority 2002, dated 2009).

molecular target: recombinant human GSK-3β (Homo sapiens, UniProt P49841); assay: Measurement of GSK-3 enzyme activity inhibition (32P phosphorylation of phospho-glycogen synthase peptide-2); type: biochemical; settings: 20 μM ATP, 20 minutes at room temperature, read-out: GSK-3 enzyme inhibiting activity (IC50)
Protocol: Measurement of GSK-3 Enzyme Activity Inhibition
After adding 25 μL of phospho-glycogen synthase peptide-2 substrate solution [6 μM phospho -glycogen synthase peptide-2, 20 μM ATP, 16 mM MOPS buffer (pH 7.0), 0.2 mM EDTA, 20 mM magnesium acetate, 0.1 μCi [γ-^32P]ATP (specific activity: approximately 110 TBq/mmol)]to 5 μL of the test compound using 5% dimethylsulfoxide as the solvent, reaction was initiated by further addition of 20 μL of a GSK-3β enzyme solution [10 mU recombinant human GSK-3β, 20 mM MOPS buffer (pH 7.0), 1 mM EDTA, 0.1% polyoxyethylene lauryl ether (23 Lauryl Ether; Brij 35), 5% glycerol, 0.1% β-mercaptoethanol]. After conducting the reaction for 20 minutes at room temperature, an equivalent volume of a 200 mM phosphoric acid solution was added to quench the reaction, and 90 μL of the reaction product was adsorbed onto a MultiScreen PH plate (Millipore) and rinsed with a 100 mM phosphoric acid solution. After drying the plate, 30 μL of Micro Scint-O (Packard BioScience) was added, and the cpm was measured with a scintillation counter to determine the inhibiting activity. Phospho GS Peptide2 is […]P)-Glu-Asp-Glu-Glu-Glu (SEQ ID NO:1).

recombinant human GSK-3β, sequence (P49841 whole entry): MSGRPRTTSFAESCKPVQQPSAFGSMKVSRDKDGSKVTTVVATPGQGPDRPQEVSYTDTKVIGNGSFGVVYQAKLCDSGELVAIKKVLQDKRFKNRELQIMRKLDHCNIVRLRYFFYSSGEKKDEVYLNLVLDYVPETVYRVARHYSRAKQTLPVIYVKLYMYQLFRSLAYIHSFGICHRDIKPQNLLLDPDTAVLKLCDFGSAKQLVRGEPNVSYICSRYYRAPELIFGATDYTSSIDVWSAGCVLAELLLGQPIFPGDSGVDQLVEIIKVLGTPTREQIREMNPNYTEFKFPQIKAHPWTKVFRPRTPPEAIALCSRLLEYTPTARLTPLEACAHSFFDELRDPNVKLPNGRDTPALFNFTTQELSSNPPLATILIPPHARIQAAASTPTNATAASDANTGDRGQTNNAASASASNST

Row | Compound | IC50
1 | N#Cc1c(-c2ccccc2)n(CC2CC2)c2c(=S)[nH]cnc12 [1-0275] | 1 to 10 µM
2 | N#Cc1cn(Cc2ccccc2)c2c(=S)[nH]cnc12 [1-0301] | 1 to 10 µM
3 | N#Cc1c(C2CC2)n(Cc2ccccc2)c2c(=O)[nH]cnc12 [1-0303] | 1 to 10 µM
4 | N#Cc1c(-c2ccccc2)n(CCc2ccccc2)c2c(=S)[nH]cnc12 [1-0312] | 1 to 10 µM
5 | N#Cc1c(-c2ccccc2)n(CCCc2ccccc2)c2c(=O)[nH]cnc12 [1-0320] | 1 to 10 µM
6 | Cc1c(C#N)c2nc[nH]c(=S)c2n1CCCc1ccccc1 [1-0323] | 1 to 10 µM
7 | N#Cc1c(-c2ccccc2)n(CCOc2ccccc2)c2c(=S)[nH]cnc12 [1-0372] | 1 to 10 µM
8 | Cn1cccc1-c1c(C#N)c2nc[nH]c(=S)c2n1CCN [1-0459, 5-(2-aminoethyl)-6-(1-methylpyrrol-2-yl)-4-thioxo-3-hydropyrrolo[3,2-d]pyrimidine-7-carbonitrile] | 1 to 10 µM
9 | N#Cc1c(-c2c(F)cccc2F)n(CCN)c2c(=S)[nH]cnc12 [1-0460, 5-(2-aminoethyl)-6-(2,6-difluorophenyl)-4-thioxo-3-hydropyrrolo[3,2-d]pyrimidine-7-carbonitrile] | 1 to 10 µM
10 | N#Cc1c(-c2ccccc2)n(CCc2nc(-c3ccccc3)no2)c2c(=S)[nH]cnc12 [1-0495, 6-phenyl-5-[2-(3-phenyl(1,2,4-oxadiazol-5-yl))ethyl]-4-thioxo-3-hydropyrrolo[3,2-d]pyrimidine-7-carbonitrile] | 1 to 10 µM
11 | N#Cc1c(-c2ccccc2)n(CCN2C(=O)c3ccccc3C2=O)c2c(=S)[nH]cnc12 [1-0501, 5-[2-(1,3-dioxoisoindolin-2-yl)ethyl]-6-phenyl-4-thioxo-3-hydropyrrolo[3,2-d]pyrimidine-7-carbonitrile] | 1 to 10 µM
12 | N#Cc1c(-c2ccccc2)n(CCCOc2ccccc2)c2c(=S)[nH]cnc12 [1-0537] | 1 to 10 µM
13 | N#Cc1c(-c2cccc(C(=O)O)c2)[nH]c2c(=S)[nH]cnc12 [1-0687, 3-(7-cyano-4-thioxo-3-hydropyrrolo[4,5-d]pyrimidin-6-yl)benzoic acid] | 1 to 10 µM

Results, then the molecule that gave them:

Row | IC50 | Compound
14 | 1 to 10 µM | N#Cc1c(C=Cc2ccccc2)[nH]c2c(=O)[nH]cnc12 [1-0006]
15 | 1 to 10 µM | N#Cc1c(-c2ccccc2)[nH]c2c(=O)[nH]cnc12 [1-0007]
16 | 1 to 10 µM | COc1ccccc1-c1[nH]c2c(=O)[nH]cnc2c1C#N [1-0038, 6-(2-methoxyphenyl)-4-oxo-3-hydropyrrolo[3,2-d]pyrimidine-7-carbonitrile]
17 | 1 to 10 µM | CC(C)CCn1c(-c2ccccc2)c(C#N)c2nc[nH]c(=O)c21 [1-0113]
18 | 1 to 10 µM | CC(C)CCn1c(-c2ccccc2)c(C#N)c2nc[nH]c(=S)c21 [1-0114]
19 | 1 to 10 µM | CC(C)(C)Cn1c(-c2ccccc2)c(C#N)c2nc[nH]c(=S)c21 [1-0129]
20 | 1 to 10 µM | CCCCCn1c(-c2ccccc2)c(C#N)c2nc[nH]c(=O)c21 [1-0132]
21 | 1 to 10 µM | N#Cc1c(-c2ccccc2)n(CCCO)c2c(=O)[nH]cnc12 [1-0194]
22 | 1 to 10 µM | COCCn1c(-c2ccccc2)c(C#N)c2nc[nH]c(=S)c21 [1-0208]
23 | 1 to 10 µM | CCOCCn1c(-c2ccccc2)c(C#N)c2nc[nH]c(=S)c21 [1-0215]
24 | 1 to 10 µM | COCCCn1c(-c2ccccc2)c(C#N)c2nc[nH]c(=O)c21 [1-0227]
25 | 1 to 10 µM | CSCCCn1c(-c2ccccc2)c(C#N)c2nc[nH]c(=O)c21 [1-0263]
26 | 0.01 to 0.03 µM | CC(C)OCCCn1c(-c2cc(O)cc(O)c2)c(C#N)c2nc[nH]c(=S)c21 [1-0529, 6-(3,5-dihydroxyphenyl)-5-[3-(methylethoxy)propyl]-4-thioxo-3-hydropyrrolo[3,2-d]pyrimidine-7-carbonitrile]
27 | 0.01 to 0.03 µM | N#Cc1c(-c2cccc(O)c2)[nH]c2c(=S)[nH]cnc12 [1-0698, 6-(3-hydroxyphenyl)-4-thioxo-3-hydropyrrolo[3,2-d]pyrimidine-7-carbonitrile]
28 | 0.03 to 0.1 µM | N#Cc1c(-c2ccccc2Br)[nH]c2c(=S)[nH]cnc12 [1-0751, 6-(2-bromophenyl)-4-thioxo-3-hydropyrrolo[3,2-d]pyrimidine-7-carbonitrile]
